In brackets after ≈: the same amount, converted by molar mass.
Test system: Mycobacterium tuberculosis variant bovis BCG
Test: microbe, parasite or virus in culture
Format: functional

Structure (SMILES)	MIC90 [µM]
O=C(COc1ccc(F)cc1Cl)Nc1nc(-c2ccccn2)cs1	3.9 (≈ 1.42 µg/mL)
CC1=NN(C(=O)c2ccco2)C(O)(c2ccccc2)C1 (configuration not stated)	4.2 (≈ 1.14 µg/mL)
O=C(Nc1ccccc1C(F)(F)F)N1CCN(c2ccc3nnc(-c4ccc(F)cc4)n3n2)CC1	4 (≈ 1.94 µg/mL)
CCOC(=O)c1cc(-c2csc(Nc3c(C)cc(C)cc3C)n2)on1	7.7 (≈ 2.75 µg/mL)
Cc1ccc(-n2ncc3c(SCC(=O)NNC(=O)c4ccco4)ncnc32)cc1	3.6 (≈ 1.47 µg/mL)
Cc1cccc(Cn2ccc(NC(=O)c3ccc4c(c3)OCO4)n2)c1	8.2 (≈ 2.75 µg/mL)
CC(=O)N1CCc2cc3nc(C)cc(C)c3cc21	3.5 (≈ 0.841 µg/mL)
O=c1oc(-c2ccccc2F)nc2scc(-c3ccccc3)c12	4 (≈ 1.29 µg/mL)
O=C(Nc1nc(-c2ccccn2)cs1)C1COc2ccccc2O1 (configuration not stated)	3.7 (≈ 1.26 µg/mL)
CNc1nc(SC)nc2ccsc12	10 (≈ 2.11 µg/mL)
CCOC(=O)c1c(-c2ccccc2)oc2ccc(O)c(CN3CCCC3)c12	3.9 (≈ 1.43 µg/mL)
CC(C)Oc1ccc(C(=O)Nc2nc(-c3ccccn3)cs2)cc1	4.1 (≈ 1.39 µg/mL)
CS(=O)(=O)c1cccc(C(=O)Nc2nc(-c3ccccn3)cs2)c1	3.3 (≈ 1.19 µg/mL)
O=C(NC1CCSc2ccccc21)c1ccc(S(=O)(=O)N2CCOCC2)cc1 (configuration not stated)	3.3 (≈ 1.38 µg/mL)
COc1cc(Cl)c(Cl)cc1C(=O)Nc1cccc2c1CCN(C)C2	4 (≈ 1.46 µg/mL)
CCOc1ccc(C(=O)Nc2ccc3c(c2)C(C)N(C)CC3)cc1Br (configuration not stated)	4 (≈ 1.61 µg/mL)
CC(C)(C)C(=O)CC1(O)Oc2ccccc2N=C1C=C(O)C(C)(C)C (configuration not stated)	5.3 (≈ 1.83 µg/mL)
O=S(=O)(NCC1CCCO1)c1ccc(-c2ccc(CN3CCOCC3)cc2)s1 (configuration not stated)	4.1 (≈ 1.73 µg/mL)
c1ccc(-n2ncc3c(N4CCCNCC4)nc(C4CC4)nc32)cc1	4.1 (≈ 1.37 µg/mL)

Structure (SMILES)	MIC90 [µM]
O=C(Nc1nnc(-c2ccccc2)o1)c1ccc2c(c1)CCCC2	4.1 (≈ 1.31 µg/mL)
O=C(Nc1nnc(-c2ccc(Cl)cc2)o1)c1cc(F)cc(F)c1	4.1 (≈ 1.38 µg/mL)
Cc1ccc(C)c(-c2nnc(NC(=O)c3cccc(C(F)(F)F)c3)o2)c1	4.1 (≈ 1.48 µg/mL)
O=c1nc(Oc2ccccc2)c(F)c[nH]1	4.2 (≈ 0.866 µg/mL)
Cc1ccc(Cl)c2sc(N(CCN(C)C)C(=O)c3cccc(S(C)(=O)=O)c3)nc12	4.2 (≈ 1.9 µg/mL)
COc1ccc(CCNC(=O)c2cc(-c3ccc(OC)c(OC)c3)on2)cc1OC	4.2 (≈ 1.73 µg/mL)
O=C(COc1ccc2c(c1)CCC2)NNC(=O)c1cccs1	4.2 (≈ 1.33 µg/mL)
C[C@@H]1CN(c2ccc(C#N)c(C(F)(F)F)c2)CCN1	4.2 (≈ 1.13 µg/mL)
O=C(COc1ccc(Cl)cc1)NNC(=O)c1cccs1	4.2 (≈ 1.31 µg/mL)
c1ccc(-c2nnc(Sc3ccnc(N4CCN(c5ccncc5)CC4)n3)n2CCN2CCOCC2)cc1	4.2 (≈ 2.22 µg/mL)
O=C(/C=C/c1ccc(C(F)(F)F)cc1F)NC1CCN(c2ncccc2C(F)(F)F)CC1	4.2 (≈ 1.94 µg/mL)
Cc1ccccc1CN1CCC(O)(c2ccc(Cl)c(C(F)(F)F)c2)CC1	4.3 (≈ 1.65 µg/mL)
O=C(C1CCN(c2nnc(-n3cccc3)s2)CC1)N1CCC(Cc2ccccc2)CC1	3.4 (≈ 1.48 µg/mL)
Cc1onc(-c2ccccc2)c1C(=O)Nc1nc(-c2ccccn2)cs1	4.3 (≈ 1.56 µg/mL)
O=c1cc(N2CCCNCC2)c(Cl)nn1CCCNS(=O)(=O)c1cccc(-c2ccccc2)c1	4.3 (≈ 2.16 µg/mL)
O=C(Cc1ccc(Cl)cc1)Nc1nc(-c2ccccn2)cs1	4.3 (≈ 1.42 µg/mL)
CC(C)(C)c1ccc(C(=O)Nc2nnc(-c3ccco3)o2)cc1	4.3 (≈ 1.34 µg/mL)
O=C(NNC(=O)c1cccs1)c1ccc(-c2cccc(C(F)(F)F)c2)o1	4.3 (≈ 1.64 µg/mL)
COc1ccc(-c2ccc(Nc3cccc(S(=O)(=O)CCNCc4nccn4C)c3)nc2)cn1	4.3 (≈ 2.06 µg/mL)

Structure (SMILES)	MIC90 [µM]
O=C(c1ccc(-c2cccc(OCCN3CCC(c4ccccc4)CC3)c2)cc1)N1CCCC1	4.3 (≈ 1.95 µg/mL)
Cc1cc(C)c2cc(C#N)c(N3CCCNCC3)nc2c1	4.3 (≈ 1.21 µg/mL)
CCn1c(-c2nonc2N)nc2c(-c3cccc(Cl)c3)ncc(OCCCNCCc3c[nH]cn3)c21	4.3 (≈ 2.18 µg/mL)
O=C(Nc1nc(-c2ccccn2)cs1)C1(c2ccc(Cl)cc2)CC1	3.3 (≈ 1.17 µg/mL)
CCOc1ccc(CC(=O)Nc2cc(C)nn2-c2nc(C)c(CC)c(=O)[nH]2)cc1	3.3 (≈ 1.31 µg/mL)
C=CCn1c(Sc2ccnc(N3CCN(c4ccncc4)CC3)n2)nnc1C(N)=O	3.3 (≈ 1.4 µg/mL)
O=C(C=Cc1cccs1)Nc1nc(-c2ccccn2)cs1	3.3 (≈ 1.03 µg/mL)
O=C(C=Cc1ccccc1)Nc1nc(-c2ccccn2)cs1	3.3 (≈ 1.01 µg/mL)
O=C(NCc1ccc2c(c1)OCO2)c1c(C(F)(F)F)nc2ccccn12	3.4 (≈ 1.24 µg/mL)
Cc1cc(OCC(=O)Nc2ccccc2)c2cc(Br)ccc2n1	2 (≈ 0.742 µg/mL)
FC(F)(F)c1cc(SCc2ccccc2)nc(-c2ccccn2)n1	7.1 (≈ 2.47 µg/mL)
O=C(Nc1nc(-c2ccccn2)cs1)c1cccc(Oc2ccccc2)c1	3.4 (≈ 1.27 µg/mL)
Cc1cc(N2CCCN(C)CC2)nc(Nc2cc(F)cc(F)c2)n1	3.4 (≈ 1.13 µg/mL)
COc1ccccc1OCCCCn1c(C2CC2)nc2ccccc21	3 (≈ 1.01 µg/mL)
O=C(Nc1ccc(C(F)(F)F)cc1)NC1CCCCC1	4.3 (≈ 1.23 µg/mL)
O=C(Nc1nnc(-c2ccc3c(c2)CCCC3)o1)c1ccc(Br)s1	4.3 (≈ 1.74 µg/mL)
CCc1ccc(C2CC(C(F)(F)F)n3ncc(C(=O)NCc4cccs4)c3N2)cc1 (configuration not stated)	8.8 (≈ 3.82 µg/mL)
COCCN1CCN(c2ncc(-c3ccccc3OCc3cc(C)on3)cn2)CC1	4.4 (≈ 1.8 µg/mL)
CC(C)C(NC(=O)CCc1nc2ccccc2oc1=O)c1nc2ccccc2[nH]1 (configuration not stated)	4.4 (≈ 1.72 µg/mL)
